molecular target: T1, Recombinant human BRD4 containing dual bromodomains (BRD4-BD12 (1-477)) (Homo sapiens, UniProt O60885); assay: BRD4 Alphascreen binding assay
T1 construct: Recombinant human BRD4 containing dual bromodomains (BRD4-BD12 (1-477)); made in house; host or cells: E. coli BL21-CodonPlus (DE3), modified pET vector
Summary of the method: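 His-tagged human BRD4 tandem bromodomains (1-477, E. coli) incubated 1 h at room temperature with biotinylated tetra-acetylated H4 (1-21) peptide and compound in HEPES pH 7.5 buffer with 2 mM DTT. AlphaScreen signal read 30 min after adding beads (7.5 μg/ml); IC50 from four-parameter fit after normalization to controls.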

Compound | IC50
Cc1noc(C)c1-c1cnc2c(-c3cccc(C(=O)O)c3)c(C(F)(F)F)n([C@@H](C)c3ccccn3)c2c1 [P-0162, (S)-3-(6-(3,5-dimethylisoxazol-4-yl)-1-(1-(pyridin-2-yl)ethyl)-2-(trifluoromethyl)-1H-pyrrolo[3,2-b]pyridin-3-yl)benzoic acid] | 8 to 1000 µM
Cc1noc(C)c1-c1cnc2c(C(O)(C3CC3)C3CC3)cn(-c3ccc(C(=O)O)cc3OC(F)(F)F)c2c1 [P-0163, 4-(3-(dicyclopropyl(hydroxy)methyl)-6-(3,5-dimethylisoxazol-4-yl)-1H-pyrrolo[3,2-b]pyridin-1-yl)-3-(trifluoromethoxy)benzoic acid] | 8 to 1000 µM
Cc1noc(C)c1-c1cnc2c(-c3cc(C(=O)O)ccc3Cl)cn(C(C)(c3ccccn3)c3ccccn3)c2c1 [P-0164, 4-chloro-3-(1-(1,1-di(pyridin-2-yl)ethyl)-6-(3,5-dimethylisoxazol-4-yl)-1H-pyrrolo[3,2-b]pyridin-3-yl)benzoic acid] | 1 to 8 µM
CCOc1cc(C(=O)O)cc(OCC)c1-n1cc(C(O)(C2CC2)C2CC2)c2ncc(-c3c(C)noc3C)cc21 [P-0165, 4-(3-(dicyclopropyl(hydroxy)methyl)-6-(3,5-dimethylisoxazol-4-yl)-1H-pyrrolo[3,2-b]pyridin-1-yl)-3,5-diethoxybenzoic acid] | 8 to 1000 µM
Cc1noc(C)c1-c1cnc2c(-c3cc(C(=O)O)ccc3C#N)cn(C(C)(c3ccccn3)c3ccccn3)c2c1 [P-0166, 4-cyano-3-(1-(1,1-di(pyridin-2-yl)ethyl)-6-(3,5-dimethylisoxazol-4-yl)-1H-pyrrolo[3,2-b]pyridin-3-yl)benzoic acid] | 0.0001 to 1 µM
C#Cc1ccccc1-c1cn(C(C)(c2ccccn2)c2ccccn2)c2cc(-c3c(C)noc3C)cnc12 [P-0167, 4-(1-(1,1-di(pyridin-2-yl)ethyl)-3-(2-ethynylphenyl)-1H-pyrrolo[3,2-b]pyridin-6-yl)-3,5-dimethylisoxazole] | 0.0001 to 1 µM
CCOc1cc(C(=O)O)cc(OCC)c1-n1cc(-c2ccccc2)c2ncc(-c3c(C)noc3C)cc21 [P-0168, 4-(6-(3,5-dimethylisoxazol-4-yl)-3-phenyl-1H-pyrrolo[3,2-b]pyridin-1-yl)-3,5-diethoxybenzoic acid] | 1 to 8 µM
Cc1noc(C)c1-c1cnc2c(-c3ccccc3C#N)cn(C(C)(c3ccccn3)c3ccccn3)c2c1 [P-0169, 2-(1-(1,1-di(pyridin-2-yl)ethyl)-6-(3,5-dimethylisoxazol-4-yl)-1H-pyrrolo[3,2-b]pyridin-3-yl)benzonitrile] | 0.0001 to 1 µM
